Experimental data taken from ChEMBL document CHEMBL2440076, “New triarylpyrazoles as broad-spectrum anticancer agents: design, synthesis, and biological evaluation” (Eur J Med Chem, 2013).

Columns and labels:
Type in all cases: functional
BT-549 = assay: Growth inhibition of human BT549 cells assessed as cell growth at 10^-8 M after 48 hrs by sulforhodamine B assay; conditions: BT-549, 48 h, read-out: Activity
K562 [1] = assay: Growth inhibition of human K562 cells assessed as cell growth at 10^-4 M after 48 hrs by sulforhodamine B assay; conditions: K562, 48 h, read-out: Activity
IGROV-1 [2] = assay: Growth inhibition of human IGROV1 cells assessed as cell growth at 10^-5 M after 48 hrs by sulforhodamine B assay; conditions: IGROV-1, 48 h, read-out: Activity
NCI-H226 = assay: Growth inhibition of human NCI-H226 cells assessed as cell growth at 10^-8 M after 48 hrs by sulforhodamine B assay; conditions: NCI-H226, 48 h, read-out: Activity
ACHN = assay: Growth inhibition of human ACHN cells assessed as cell growth at 10^-4 M after 48 hrs by sulforhodamine B assay; conditions: read-out: Activity
MCF7 = assay: Growth inhibition of human MCF7 cells assessed as cell growth at 10^-8 M after 48 hrs by sulforhodamine B assay; conditions: MCF7, 48 h, read-out: Activity
[3] = Growth inhibition of human Hs 578T cells assessed as cell growth at 10^-8 M after 48 hrs by sulforhodamine B assay; conditions: read-out: Activity
KM12 [4] = assay: Growth inhibition of human KM12 cells assessed as cell growth at 10^-7 M after 48 hrs by sulforhodamine B assay; conditions: KM12, 48 h, read-out: Activity
SK-MEL-5 = assay: Growth inhibition of human SK-MEL-5 cells assessed as cell growth at 10^-4 M after 48 hrs by sulforhodamine B assay; conditions: SK-MEL-5, 48 h, read-out: Activity
MOLT-4 = assay: Growth inhibition of human MOLT4 cells assessed as cell growth at 10^-7 M after 48 hrs by sulforhodamine B assay; conditions: MOLT-4, 48 h, read-out: Activity
HCT-15 = assay: Growth inhibition of human HCT15 cells assessed as cell growth at 10^-7 M after 48 hrs by sulforhodamine B assay; conditions: HCT-15, 48 h, read-out: Activity
MDA-MB-468 [5] = assay: Growth inhibition of human MDA-MB-468 cells assessed as cell growth at 10^-5 M after 48 hrs by sulforhodamine B assay; conditions: MDA-MB-468, 48 h, read-out: Activity
HOP-92 = assay: Growth inhibition of human HOP92 cells assessed as cell growth at 10^-4 M after 48 hrs by sulforhodamine B assay; conditions: HOP-92, 48 h, read-out: Activity
HOP-62 [6] = assay: Growth inhibition of human HOP62 cells assessed as cell growth at 10^-8 M after 48 hrs by sulforhodamine B assay; conditions: HOP-62, 48 h, read-out: Activity
SK-MEL-28 = assay: Growth inhibition of human SK-MEL-28 cells assessed as cell growth at 10^-8 M after 48 hrs by sulforhodamine B assay; conditions: SK-MEL-28, 48 h, read-out: Activity
RPMI-8226 [7] = assay: Growth inhibition of human RPMI8226 cells assessed as cell growth at 10^-7 M after 48 hrs by sulforhodamine B assay; conditions: RPMI-8226, 48 h, read-out: Activity
786-0 [8] = assay: Growth inhibition of human 786-0 cells assessed as cell growth at 10^-5 M after 48 hrs by sulforhodamine B assay; conditions: 786-0, 48 h, read-out: Activity
MDA-MB-468 [9] = assay: Growth inhibition of human MDA-MB-468 cells assessed as cell growth at 10^-7 M after 48 hrs by sulforhodamine B assay; conditions: MDA-MB-468, 48 h, read-out: Activity
SK-MEL-2 = assay: Growth inhibition of human SK-MEL-2 cells assessed as cell growth at 10^-4 M after 48 hrs by sulforhodamine B assay; conditions: SK-MEL-2, 48 h, read-out: Activity
NCI-H460 = assay: Growth inhibition of human NCI-H460 cells assessed as cell growth at 10^-7 M after 48 hrs by sulforhodamine B assay; conditions: NCI-H460, 48 h, read-out: Activity
HOP-62 [10] = assay: Growth inhibition of human HOP62 cells assessed as cell growth at 10^-6 M after 48 hrs by sulforhodamine B assay; conditions: HOP-62, 48 h, read-out: Activity
HCT-116 [11] = assay: Growth inhibition of human HCT116 cells assessed as cell growth at 10^-4 M after 48 hrs by sulforhodamine B assay; conditions: HCT-116, 48 h, read-out: Activity
RPMI-8226 [12] = assay: Growth inhibition of human RPMI8226 cells assessed as cell growth at 10^-5 M after 48 hrs by sulforhodamine B assay; conditions: RPMI-8226, 48 h, read-out: Activity
HOP-62 [13] = assay: Growth inhibition of human HOP62 cells assessed as cell growth at 10^-4 M after 48 hrs by sulforhodamine B assay; conditions: HOP-62, 48 h, read-out: Activity
SNB-75 = assay: Growth inhibition of human SNB75 cells assessed as cell growth at 10^-5 M after 48 hrs by sulforhodamine B assay; conditions: SNB-75, 48 h, read-out: Activity
SW-620 = assay: Growth inhibition of human SW620 cells assessed as cell growth at 10^-5 M after 48 hrs by sulforhodamine B assay; conditions: SW-620, 48 h, read-out: Activity
SR = assay: Growth inhibition of human SR cells assessed as cell growth at 10^-5 M after 48 hrs by sulforhodamine B assay; conditions: read-out: Activity
MDA-MB-231 = assay: Growth inhibition of human MDA-MB-231 cells assessed as cell growth at 10^-8 M after 48 hrs by sulforhodamine B assay; conditions: MDA-MB-231, 48 h, read-out: Activity
SF-295 = assay: Growth inhibition of human SF295 cells assessed as cell growth at 10^-4 M after 48 hrs by sulforhodamine B assay; conditions: SF-295, 48 h, read-out: Activity
IGROV-1 [14] = assay: Growth inhibition of human IGROV1 cells assessed as cell growth at 10^-7 M after 48 hrs by sulforhodamine B assay; conditions: IGROV-1, 48 h, read-out: Activity
OVCAR-4 = assay: Growth inhibition of human OVCAR4 cells assessed as cell growth at 10^-6 M after 48 hrs by sulforhodamine B assay; conditions: OVCAR-4, 48 h, read-out: Activity
LOX IMVI [15] = assay: Growth inhibition of human LOXIMVI cells assessed as cell growth at 10^-7 M after 48 hrs by sulforhodamine B assay; conditions: read-out: Activity
MDA-MB-468 [16] = assay: Growth inhibition of human MDA-MB-468 cells assessed as cell growth at 10^-4 M after 48 hrs by sulforhodamine B assay; conditions: MDA-MB-468, 48 h, read-out: Activity
786-0 [17] = assay: Growth inhibition of human 786-0 cells assessed as cell growth at 10^-8 M after 48 hrs by sulforhodamine B assay; conditions: 786-0, 48 h, read-out: Activity
HCT-116 [18] = assay: Growth inhibition of human HCT116 cells assessed as cell growth at 10^-5 M after 48 hrs by sulforhodamine B assay; conditions: HCT-116, 48 h, read-out: Activity
KM12 [19] = assay: Growth inhibition of human KM12 cells assessed as cell growth at 10^-4 M after 48 hrs by sulforhodamine B assay; conditions: KM12, 48 h, read-out: Activity
LOX IMVI [20] = assay: Growth inhibition of human LOXIMVI cells assessed as cell growth at 10^-4 M after 48 hrs by sulforhodamine B assay; conditions: read-out: Activity
K562 [21] = assay: Growth inhibition of human K562 cells assessed as cell growth at 10^-5 M after 48 hrs by sulforhodamine B assay; conditions: K562, 48 h, read-out: Activity

Row | Compound | growth at 0.01 µM (BT-549) [%] | growth at 100 µM (K562 [1]) [%] | growth at 10 µM (IGROV-1 [2]) [%] | growth at 0.01 µM (NCI-H226) [%] | growth at 100 µM (ACHN) [%] | growth at 0.01 µM (MCF7) [%] | growth at 0.01 µM [3] [%] | growth at 0.1 µM (KM12 [4]) [%] | growth at 100 µM (SK-MEL-5) [%] | growth at 0.1 µM (MOLT-4) [%] | growth at 0.1 µM (HCT-15) [%] | growth at 10 µM (MDA-MB-468 [5]) [%] | growth at 100 µM (HOP-92) [%] | growth at 0.01 µM (HOP-62 [6]) [%] | growth at 0.01 µM (SK-MEL-28) [%] | growth at 0.1 µM (RPMI-8226 [7]) [%] | growth at 10 µM (786-0 [8]) [%] | growth at 0.1 µM (MDA-MB-468 [9]) [%] | growth at 100 µM (SK-MEL-2) [%] | growth at 0.1 µM (NCI-H460) [%] | other results
1 | COc1cc(-c2nn(-c3cccc(NC(=O)c4ccccc4)c3)cc2-c2ccncc2)ccc1Cl | 92 | 11 | 28 | 97 | 27 | 92 | 103 | 91 | -85 | 99 | 96 | -15 | -15 | 94 | 99 | 96 | 24 | 89 | -30 | 99 | growth at 1 µM (HOP-62 [10]): 72%; growth at 100 µM (HCT-116 [11]): 9%; growth at 10 µM (RPMI-8226 [12]): 10%; growth at 100 µM (HOP-62 [13]): 31%; growth at 10 µM (SNB-75): 1%; growth at 10 µM (SW-620): 23%; growth at 10 µM (SR): 2%; growth at 0.01 µM (MDA-MB-231): 103%; growth at 100 µM (SF-295): -46%; growth at 0.1 µM (IGROV-1 [14]): 91%; growth at 1 µM (OVCAR-4): 51%; growth at 0.1 µM (LOX IMVI [15]): 94%; growth at 100 µM (MDA-MB-468 [16]): -27%; growth at 0.01 µM (786-0 [17]): 93%; growth at 10 µM (HCT-116 [18]): 17%; growth at 100 µM (KM12 [19]): 6%; growth at 100 µM (LOX IMVI [20]): 7%; growth at 10 µM (K562 [21]): 10%
2 | COc1cc(-c2nn(-c3cccc(NC(=O)c4ccc(N5CCOCC5)c(C(F)(F)F)c4)c3)cc2-c2ccncc2)ccc1Cl | 99 | 3 | -7 | 102 | 2 | 87 | 96 | 64 | -85 | 105 | 65 | -64 | -30 | 96 | 100 | 88 | -14 | 71 | -34 | 88 | growth at 1 µM (HOP-62 [10]): 38%; growth at 100 µM (HCT-116 [11]): 2%; growth at 10 µM (RPMI-8226 [12]): 6%; growth at 100 µM (HOP-62 [13]): 9%; growth at 10 µM (SNB-75): -13%; growth at 10 µM (SW-620): 17%; growth at 10 µM (SR): 4%; growth at 0.01 µM (MDA-MB-231): 95%; growth at 100 µM (SF-295): -72%; growth at 0.1 µM (IGROV-1 [14]): 81%; growth at 1 µM (OVCAR-4): 49%; growth at 0.1 µM (LOX IMVI [15]): 78%; growth at 100 µM (MDA-MB-468 [16]): -53%; growth at 0.01 µM (786-0 [17]): 98%; growth at 10 µM (HCT-116 [18]): 8%; growth at 100 µM (KM12 [19]): -12%; growth at 100 µM (LOX IMVI [20]): -34%; growth at 10 µM (K562 [21]): 2%
